Test results: US5171882A, “Leukotriene antagonists” (Eli Lilly and Company, priority 1990, dated 1992)
Where two headings read alike, the source gives them in different places.

Target: T1, specific receptor on the membrane of human neutrophils (leukotriene B4) (Homo sapiens, UniProt Q15722)
T1 construct: Freshly-prepared buffy coat layers from two individuals were obtained from a local blood donor center; endogenous in cells; host or cells: intact human peripheral blood neutrophils from buffy coats of two donors
T1 sequence (Q15722 whole entry): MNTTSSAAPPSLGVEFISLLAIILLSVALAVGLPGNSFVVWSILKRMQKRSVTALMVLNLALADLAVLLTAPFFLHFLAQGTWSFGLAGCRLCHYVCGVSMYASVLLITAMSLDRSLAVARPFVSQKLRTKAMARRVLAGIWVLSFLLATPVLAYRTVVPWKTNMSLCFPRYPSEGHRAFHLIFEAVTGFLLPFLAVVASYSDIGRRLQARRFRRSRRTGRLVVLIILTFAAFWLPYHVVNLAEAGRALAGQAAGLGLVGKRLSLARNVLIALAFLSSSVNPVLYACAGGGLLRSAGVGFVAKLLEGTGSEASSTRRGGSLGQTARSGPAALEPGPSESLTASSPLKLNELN
Assay: Inhibition of Binding of ^3 H-LTB4 to Peripheral Human Neutrophils
Details: for inhibition at 10 µM / inhibition at 1 µM / inhibition at 0.1 µM: read-out: LTB4 Binding Inhibition; for inhibition at 0.1 µM: drug concentration 10^-7 M
Experimental: Cells used in the assay were isolated by standard techniques of centrifugation on Ficoll-Hypaque, dextran 70 sedimentation and hypotonic lysis. The following procedure was used. Freshly-prepared buffy coat layers from two individuals were obtained from a local blood donor center. The cells were mixed and diluted to 484 ml with phosphate buffered saline containing heparin (10 units/ml) and heat-inactivated calf serum (5%). This was divided into 20 ml aliquots and the aliquots layered on top of Ficoll-Paque (12 ml). The material was then centrifuged at 500 g for 40 minutes at room temperature. The resulting upper layer of platelets and mononuclear cells was discarded. The lower layer containing erythrocytes and neutrophils was retained. Buffer was added (1 ml per 4 ml of lower layer) and the suspension mixed. For each milliliter of this mixture, 0.33 ml of 6% Macrodex was added. After stirring, the cells were allowed to sediment for 1 hour at 37° C. The resulting erythrocyte pellet was discarded and the neutrophil enriched supernatant fluid centrifuged at 500 g for 10 minutes at 4° C. Erythrocytes still present in this cell pellet were lysed by incubating the cells with 5-8 ml ice-cold distilled water for 30-45 seconds. Subsequently, the volume was made up to 50 ml by addition of ice-cold buffer and the cells resuspended. The suspension was then centrifuged at 300 g for 10 minutes at 4° C. The cells were finally resuspended at a cell density of 2×10^7 cells/ml in the assay buffer This buffer consisted of Hanks' balanced salt solution and 0.1% ovalbumin (pH 7.3).
The amount of bound ^3 H-LTB4 was then measured and compared with the amount bound in the absence of test compound. The assay was carried out in microcentrifuge tubes by adding first 10 μl test compound dissolved in DMSO, followed by adding 20 μl ^3 H-LTB4 diluted in assay buffer, and finally adding 500 μl of the cell suspension. At the end of the 10 minutes incubation, 300 μl of a mixture of dibutyl and dinonyl phthalate (7:2) were added and the tubes centrifuged for 2 minutes in a microcentrifuge. The radioactivity bound to the cell pellet was measured by scintillation spectroscopy. Appropriate corrections for nonspecific bonding of ^3 H-LTB4 were made.

[1] = drug concentration 10^-5 M, 0.1-0.2 nM ^3 H-LTB4, 10 minutes at 4° C
[2] = drug concentration 10^-6 M, 0.1-0.2 nM ^3 H-LTB4, 10 minutes at 4° C
[3] = 0.1-0.2 nM ^3 H-LTB4, 10 minutes at 4° C

inhibition at 10 µM [1]	inhibition at 1 µM [2]	inhibition at 0.1 µM [3]	SMILES	further results
-11%	14%	–	CCCCCCCCCCOc1ccc(C(=O)c2cccc(C(=O)OCC)c2)cc1Cc1nnn[nH]1 [Example 2, 3-[4-(Decyloxy)-3-(1H-tetrazol-5-ylmethyl)-benzoyl]benzoic acid, ethyl ester]	–
-5%	-1%	–	CCCCCCCCCCOc1ccc(C(=O)c2cccc(C(=O)OCC)c2)cc1CC(=O)OCC [Example 4, 2-(Decyloxy)-5-[3-(ethoxycarbonyl)benzoyl]benzeneacetic acid, ethyl ester]	–
3%	-1%	–	CCCCCCCCCCOc1ccc(C(=O)c2cccc(C#N)c2)cc1CC#N [Example 12, 5-(3-Cyanobenzoyl)-2-(decyloxy)benzeneacetonitrile]	–
-13%	1%	–	CCCCCCCCCCOc1ccc(C(=O)c2cccc(-c3nnn[nH]3)c2)cc1CC(=O)OCC [Example 15, 2-(Decyloxy)-5-[3-(1H-tetrazol-5-yl)benzoyl]benzeneacetic acid, ethyl ester]	–
81%	20%	–	CCCCCCCCCCOc1ccc(C(=O)c2cccc(-c3nnn[nH]3)c2)cc1Cc1nnn[nH]1 [Example 17, [4-(Decyloxy)-3-(1H-tetrazol-5-ylmethyl)phenyl][3-(1H-tetrazol-5-yl)phenyl]methanone]	–
63%	10%	–	CCCCCCCCCCCCCCOc1ccc(C(=O)c2cccc(C(=O)O)c2)cc1CC(=O)O [Example 26, 5-(3-Carboxybenzoyl)-2-(tetradecyloxy)benzeneacetic acid]	–
80%	18%	–	CCCCCCCCCCCCOc1ccc(C(=O)c2cccc(C(=O)O)c2)cc1CC(=O)O [Example 27, 5-(3-Carboxybenzoyl)-2-(dodecyloxy)benzeneacetic acid]	–
19%	-6%	–	CCCCCCCCCCOc1ccc(C(=O)c2ccccc2C(=O)O)cc1CC(=O)OCC [Example 32, 5-(2-Carboxybenzoyl)-2-(decyloxy)benzeneacetic acid, ethyl ester]	–
–	–	–	CCCCCCCCCCOc1ccc(C(=O)c2ccccc2C(=O)O)cc1CC(=O)O [Example 35, 5-(2-Carboxybenzoyl)-2-(decyloxy)benzeneacetic acid]	LTB4 Binding Inhibition [1]: 53 percent inhibition; LTB4 Binding Inhibition [2]: 2 percent inhibition
-14%	-10%	–	CCCCCCCCCCOc1ccc(C(O)c2cccc(C(=O)OCC)c2)cc1CC(=O)OCC (stereo not drawn) [Example 40, 2-(Decyloxy)-5-{[3-(ethoxycarbonyl)phenyl]hxdroxymethyl}benzeneacetic acid, ethyl ester]	–
41%	11%	–	CCCCCCCCOc1ccc(C(O)c2cccc(C(=O)O)c2)cc1CC(=O)O (stereo not drawn) [Example 44, 5-[(3-Carboxyphenyl)hydroxymethyl]-2-(octyloxy)benzeneacetic acid]	–
88%	41%	–	CCCCCCCCCCOc1ccc(Cc2cccc(C(=O)O)c2)cc1CCC(=O)O [Example 50, 5-[(3-Carboxyphenyl)methyl]-2-(decyloxy)benzenepropanoic acid]	–
96%	91%	36%	O=C(O)CCc1cc(C(=O)c2cccc(C(=O)O)c2)ccc1OCCCCC=Cc1ccccc1 [Example 76, 5-(3-Carboxybenzoyl)-2-[6-(phenyl-5-hexenyl)oxy]benzenepropanoic acid]	–
105%	98%	68%	COc1ccc(CCCCCCOc2ccc(C(=O)c3cccc(C(=O)O)c3)cc2CCC(=O)O)cc1 [Example 80, 5-(3-Carboxybenzoyl)-2-{[6-(4-methoxyphenyl)-hexyl]oxy}benzenepropanoicacid]	–
104%	81%	22%	O=C(O)CCc1cc(C(=O)c2cccc(C(=O)O)c2)ccc1OCCCCCCc1ccc(F)cc1 [Example 82, 5-(3-Carboxybenzoyl)-2-{[6-(4-fluorophenyl)hexyl]oxy}benzenepropanoic acid]	–
103%	79%	18%	CSc1ccc(C=CCCCCOc2ccc(C(=O)c3cccc(C(=O)O)c3)cc2CCC(=O)O)cc1 [Example 83, 5-(3-Carboxybenzoyl)-2-{[6-(4-methylmercaptophenyl)-5-hexenyl]oxy}benzenepropanoic acid]	–
99%	91%	49%	COc1cccc(C=CCCCCOc2ccc(C(=O)c3cccc(C(=O)O)c3)cc2CCC(=O)O)c1 [Example 84, 5-(3-Carboxybenzoyl)-2-{[6-(3-methoxyphenyl)-5-hexenyl]oxy}benzenepropanoic acid]	–
95%	88%	46%	COc1cccc(CCCCCCOc2ccc(C(=O)c3cccc(C(=O)O)c3)cc2CCC(=O)O)c1 [Example 86, 5-(3-Carboxybenzoyl)-2-{[6-(3-methoxyphenyl)hexyl]oxy}benzenepropanoic acid]	–
98%	88%	60%	CS(=O)(=O)c1ccc(C=CCCCCOc2ccc(C(=O)c3cccc(C(=O)O)c3)cc2CCC(=O)O)cc1 [Example 91, 5-(3-Carboxybenzoyl)-2-{[6-(4-methylsulfonylphenyl)-5-hexenyl]oxy}benzenepropanoic acid]	–
–	88%	46%	CC(=O)c1ccc(CCCCCCOc2ccc(C(=O)c3cccc(C(=O)O)c3)cc2CCC(=O)O)cc1 [Example 101, 2-{[6-(4-Acetylphenyl)hexyl]oxy}-5-(3-carboxybenzoyl]benzenepropanoic acid]	–
98%	72%	18%	O=C(O)CCc1cc(NC(=O)c2cccc(C(=O)O)c2)ccc1OCCCCCCc1ccccc1 [Example 102]	–

SMILES	inhibition at 10 µM [1]	inhibition at 1 µM [2]	inhibition at 0.1 µM [3]	further results
O=C(O)CCc1cc(C(=O)c2cccc(C(=O)O)c2)ccc1OCCCC[S+]([O-])c1ccccc1 (stereo not drawn) [Example 77, 5-(3-Carboxybenzoyl)-2-[4-(phenylsulfinyl)-butoxy]benzenepropanoic acid]	22%	8%	–	–
O=C(O)CCc1cc(C(=O)c2cccc(C(=O)O)c2)ccc1OCCCCS(=O)(=O)c1ccccc1 [Example 78, 5-(3-Carboxybenzoyl)-2-[4-(phenylsulfonyl)-butoxy]benzenepropanoic acid]	18%	4%	–	–
COc1ccccc1C=CCCCCOc1ccc(C(=O)c2cccc(C(=O)O)c2)cc1CCC(=O)O [Example 85, 5-(3-Carboxybenzoyl)-2-{[6-(2-methoxyphenyl)-5-hexenyl]oxy}benzenepropanoic acid]	101%	–	86%	inhibition at 1 µM: 97%
COc1ccccc1CCCCCCOc1ccc(C(=O)c2cccc(C(=O)O)c2)cc1CCC(=O)O [Example 87, 5-(3-Carboxybenzoyl)-2-{[6-(2-methoxyphenyl)hexyl]oxy}benzenepropanoic acid]	–	91%	34%	inhibition at 10 µM: 100%
